# According to patent US12528797B2, “Heterocyclic compounds for medical treatment” (C4 Therapeutics, Inc., priority 2019, dated 2026):
# Biological target: hCereblon(M1-L442)_hDDB1(M1-H1140) (Homo sapiens (Human), UniProt Q96SW2)
# Assay: Fluorescence direct binding (tryptophan fluorescence titration)
# Conditions: 20° C., excitation 280 nm, emission 340 nm, assay buffer 50 mM Hepes 7.4 200 mM NaCl; read-out: Fluorescence h-Cereblon_DDB1 Mean Kd_EQ
# Protocol: Fluorescence Direct Binding Protocol
# Determination of the affinities of compounds to protein containing one or more tryptophan is measurable by monitoring the fluorescence emission in direct mode. The measurements depending on the protein available amounts are performed either manually in a cuvette on ISS-PC1 photon counting spectrofluorometer or automatically in well plates on a fluorescence plate reader device. Fluorescence titrations are performed at 20° C. in the chosen binding assay buffer by using a defined constant protein concentration against ligand concentration variations. Small aliquots of known ligand concentration solubilized in DMSO were added and the fluorescence, excited at 280 nm, was recorded at 340 nm. The fluorescence intensity was corrected for protein dilution and for the filter effect (Birdsall et al.). The corrected fluorescence intensity was plotted against the ligand concentration and fitted using a four-parameter sigmoidal function, from which the equilibrium dissociation constant Kd was computed using the law of mass action assuming a 1:1 protein-ligand complex (Eftink, 1997).
# • 1) Optimization of measurement parameters to minimize protein consumption and to minimize the dilution effect and the DMSO content • 2) Titration measurements of the protein against ligand by at least 12 titration steps to obtain a good s-curve fit • 3) Repeat the same titration measurements with the ligand alone to enable correction • 4) Check the stability of the protein once by titration against DMSO alone • 5) Determination of the molar extinction coefficients of the ligand at 280 and 340 nm with help of an UV-spectrophotometer • 6) Use Excel template for the correction of the measured raw data Use GraphPad Prism software for the quadratic binding fit and the KD evaluation.
# Chain of hCereblon(M1-L442)_hDDB1(M1-H1140) (Q96SW2 whole entry): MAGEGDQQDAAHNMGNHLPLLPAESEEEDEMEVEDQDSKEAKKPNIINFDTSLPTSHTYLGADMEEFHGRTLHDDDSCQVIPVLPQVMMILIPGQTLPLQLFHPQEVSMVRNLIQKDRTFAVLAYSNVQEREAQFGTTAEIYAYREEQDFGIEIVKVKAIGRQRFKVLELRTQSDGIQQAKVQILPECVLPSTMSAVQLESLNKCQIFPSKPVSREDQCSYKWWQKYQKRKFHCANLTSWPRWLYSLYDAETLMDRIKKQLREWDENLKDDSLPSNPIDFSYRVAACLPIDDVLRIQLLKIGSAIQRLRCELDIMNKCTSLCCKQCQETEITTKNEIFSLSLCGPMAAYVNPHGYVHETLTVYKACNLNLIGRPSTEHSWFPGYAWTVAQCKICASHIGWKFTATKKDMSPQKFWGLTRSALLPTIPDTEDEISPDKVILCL
# Chain of hCereblon(M1-L442)_hDDB1(M1-H1140) (Q16531 whole entry partner): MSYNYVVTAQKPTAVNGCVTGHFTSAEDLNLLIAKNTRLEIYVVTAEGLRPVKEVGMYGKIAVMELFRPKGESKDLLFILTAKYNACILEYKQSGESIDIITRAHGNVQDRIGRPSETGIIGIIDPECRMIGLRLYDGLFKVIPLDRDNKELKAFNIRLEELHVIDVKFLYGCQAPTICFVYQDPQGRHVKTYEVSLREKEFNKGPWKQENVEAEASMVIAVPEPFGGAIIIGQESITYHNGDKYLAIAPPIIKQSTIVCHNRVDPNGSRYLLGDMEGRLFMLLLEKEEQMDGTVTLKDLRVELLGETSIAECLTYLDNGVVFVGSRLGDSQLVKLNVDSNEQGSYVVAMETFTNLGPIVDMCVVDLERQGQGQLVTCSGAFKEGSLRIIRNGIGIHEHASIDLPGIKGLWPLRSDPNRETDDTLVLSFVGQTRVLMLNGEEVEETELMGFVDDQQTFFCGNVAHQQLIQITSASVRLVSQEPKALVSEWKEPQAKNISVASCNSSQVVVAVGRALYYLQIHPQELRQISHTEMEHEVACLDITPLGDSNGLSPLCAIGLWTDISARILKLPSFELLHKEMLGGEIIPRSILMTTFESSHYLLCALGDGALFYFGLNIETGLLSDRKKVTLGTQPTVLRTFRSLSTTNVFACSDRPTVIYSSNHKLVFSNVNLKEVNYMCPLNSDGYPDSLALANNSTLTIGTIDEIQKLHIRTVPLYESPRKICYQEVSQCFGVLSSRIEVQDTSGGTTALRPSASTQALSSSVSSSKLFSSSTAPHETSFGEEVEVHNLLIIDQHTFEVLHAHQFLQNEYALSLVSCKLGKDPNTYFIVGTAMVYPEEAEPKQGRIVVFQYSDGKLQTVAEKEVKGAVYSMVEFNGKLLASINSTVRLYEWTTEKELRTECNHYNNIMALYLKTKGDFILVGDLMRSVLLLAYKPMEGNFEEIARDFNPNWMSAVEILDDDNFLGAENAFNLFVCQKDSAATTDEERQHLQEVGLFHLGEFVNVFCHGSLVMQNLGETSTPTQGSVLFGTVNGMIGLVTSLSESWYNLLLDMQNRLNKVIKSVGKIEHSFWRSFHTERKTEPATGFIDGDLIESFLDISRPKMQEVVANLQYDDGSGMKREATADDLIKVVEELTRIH
row,Kd [µM],Compound
1,0.004,"O=C(Nc1ccc2[nH]c(=O)oc2c1)c1ccccc1 [Example 1, N-(2-Oxo-3H-1,3-benzoxazol-6-yl)benzamide]"
2,0.007,"O=C1Cc2cc(NC(=O)c3ccco3)ccc2N1 [Example 2, N-(2-Oxoindolin-5-yl)furan-2-carboxamide]"
3,0.014,"Cc1ccccc1OCC(=O)Nc1ccc2[nH]c(=O)sc2c1 [Example 3, 2-(2-Methylphenoxy)-N-(2-oxo-3H-1,3-benzothiazol-6-yl)acetamide]"
4,0.002,"CNC(=O)c1ccc2c(c1)nc(C(C)C)n2-c1ccc2c(c1)NC(=O)C2 [Example 4, 2-Isopropyl-N-methyl-1-(2-oxoindolin-6-yl)benzimidazole-5-carboxamide]"
5,0.003,"CNC(=O)c1ccc2c(c1)nc(C(C)C)n2-c1ccc2c(c1)CC(=O)N2 [Example 5, 2-Isopropyl-N-methyl-1-(2-oxoindolin-5-yl)benzimidazole-5-carboxamide]"
6,< 0.001,"Nc1ccccc1Nc1ccc2[nH]c(=O)sc2c1 [Example 6, 6-(2-Aminoanilino)-3H-1,3-benzothiazol-2-one]"
7,0.019,"CC(C)c1nc2ccccc2n1-c1ccc2[nH]c(=O)sc2c1 [Example 7, 6-(2-Isopropylbenzimidazol-1-yl)-3H-1,3-benzothiazol-2-one]"
8,0.008,"Nc1ccccc1Nc1ccc2[nH]c(=O)oc2c1 [Example 8, 6-(2-Aminoanilino)-3H-1,3-benzoxazol-2-one]"
9,0.108,"CC(C)c1nc2ccccc2n1-c1ccc2[nH]c(=O)oc2c1 [Example 9, 6-(2-Isopropylbenzimidazol-1-yl)-3H-1,3-benzoxazol-2-one]"
10,0.091,"O=C1Cc2cc(C(=O)Nc3ccccc3)ccc2N1 [Example 10, 2-Oxo-N-phenylindoline-5-carboxamide]"
11,0.054,"O=C(Nc1ccccc1)c1ccc2[nH]c(=O)oc2c1 [Example 11, 2-Oxo-N-phenyl-3H-1,3-benzoxazole-6-carboxamide]"
12,0.006,"CC(=O)N1CCC(NC(=O)c2ccc3[nH]c(=O)oc3c2)CC1 [Example 12, N-(1-Acetyl-4-piperidyl)-2-oxo-3H-1,3-benzoxazole-6-carboxamide]"
13,0.004,"O=C(c1ccc2[nH]c(=O)oc2c1)N1CCc2ccccc21 [Example 13, 6-(Indoline-1-carbonyl)-3H-1,3-benzoxazol-2-one]"
14,0.024,"O=C(c1ccc2[nH]c(=O)oc2c1)N1CCc2cccnc21 [Example 14, 6-(2,3-Dihydropyrrolo[2,3-b]pyridine-1-carbonyl)-3H-1,3-benzoxazol-2-one]"
15,0.079,"O=C(Nc1ccccc1)c1ccc2[nH]c(=O)sc2c1 [Example 15, 2-Oxo-N-phenyl-3H-1,3-benzothiazole-6-carboxamide]"
16,0.028,"O=C(c1ccc2[nH]c(=O)sc2c1)N1CCc2ccccc21 [Example 16, 6-(Indoline-1-carbonyl)-3H-1,3-benzothiazol-2-one]"
17,0.015,"O=C1Cc2cc(C(=O)N3CCc4ccccc43)ccc2N1 [Example 17, 5-(Indoline-1-carbonyl)indolin-2-one]"
18,0.024,"O=C(Nc1ccccc1)c1cnc2[nH]c(=O)oc2c1 [Example 18, 2-Oxo-N-phenyl-3H-oxazolo[4,5-b]pyridine-6-carboxamide]"
19,0.007,"CC(=O)N1CCC(NC(=O)c2cnc3[nH]c(=O)oc3c2)CC1 [Example 19, N-(1-Acetyl-4-piperidyl)-2-oxo-3H-oxazolo[4,5-b]pyridine-6-carboxamide]"
20,0.013,"O=C1Cc2cc(C(=O)N3CCc4ccccc43)cnc2N1 [Example 20, 5-(Indoline-1-carbonyl)-1,3-dihydropyrrolo[2,3-b]pyridin-2-one]"
21,< 0.001,"CC(C)c1nc2ccccc2n1-c1ccc2c(c1)C(F)(F)C(=O)N2 [Example 21, 3,3-Difluoro-5-(2-isopropylbenzimidazol-1-yl)indolin-2-one]"
22,0.002,"O=C(c1ccc2[nH]c(=O)oc2c1)N1Cc2cccc(O)c2C1 [Example 22, 6-(4-Hydroxyisoindoline-2-carbonyl)-3H-1,3-benzoxazol-2-one]"
23,0.014,"O=C(c1ccc2[nH]c(=O)oc2c1)N1Cc2cccc([N+](=O)[O-])c2C1 [Example 23, 6-(4-Nitroisoindoline-2-carbonyl)-3H-1,3-benzoxazol-2-one]"
24,0.028,"O=C(Nc1ccc2c(c1)C(F)(F)C(=O)N2)C1CCCc2ccccc21 (stereo not drawn) [Example 24, N-(3,3-difluoro-2-oxo-indolin-5-yl)tetralin-1-carboxamide]"
25,0.052,"O=C(Nc1ccc2c(c1)C(F)(F)C(=O)N2)c1coc2ccccc12 [Example 25, N-(3,3-difluoro-2-oxo-indolin-5-yl)benzofuran-3-carboxamide]"
26,0.007,"CNC(=O)c1ccc2c(c1)nc(C(C)C)n2-c1cnc2c(c1)CC(=O)N2 [Example 26, 2-Isopropyl-N-methyl-1-(2-oxo-1,3-dihydropyrrolo[2,3-b]pyridin-5-yl)benzimidazole-5-carboxamide]"
27,< 0.001,"CC(C)c1nc2ccccc2n1-c1cnc2c(c1)CC(=O)N2 [Example 27, 5-(2-Isopropylbenzimidazol-1-yl)-1,3-dihydropyrrolo[2,3-b]pyridin-2-one]"
